Results reported in patent US12364702B2, “Highly active sting protein agonist compound” (ADLAI NORTYE BIOPHARMA CO., LTD., priority 2018, dated 2025).
Like-named read-outs stand apart in the source and are kept apart here.

Key:
Type in all cases: cell-based
STING = STING (Homo sapiens, UniProt Q86WV6); experiment: IFN-β secretion from THP1 by STING activation (hIFNβ ELISA)
Protocol: In this assay, activation of STING by compounds was evaluated by detecting their ability to stimulate the secretion of IFN-β (interferon-beta) from THP1. THP1 was purchased from National Collection of Authenticated Cell Cultures (Cat #TCHu 57). The top dose of compounds was setted according to their solubility. First, Compounds were 3 times diluted with medium, 8-dose points in total. The final DMSO concentration was 0.2%. THP1 during the logarithmic phase was resuspended to 2×10^6 cells/ml in assay medium. The THP1-cell suspension was dispensed into a 96-well U bottom plate containing 50 ul of compound diluted in medium. After 24 h incubation at 37° C., 5% CO2, the supernatant was collected. The concentration of IFN-β in the supernatant was measured using a human IFNβ ELISA KIT (R&D, DY814-05). The data was fitted with GraphPad Prism or XLfit to calculate EC50 values.

STING WT variant = target: T1, STING WT variant (Homo sapiens, UniProt Q86WV6); experiment: SEAP reporter assay in HEK-Blue ISG KO-STING cells transfected with STING WT variant (Method 1); conditions: 24 h, SEAP signal vs 0.5% DMSO
T1 construct: host or cells: HEK-Blue ISG KO-STING cells (Invivogen, hkb-kostg)
Excerpt: (§1) Activation of STING can be determined using a SEAP reporter assay in HEK-Blue™ ISG KO-STING cells (Invivogen, cat #hkb-kostg) transfected with plasmids expressing STING variants (WT & HAQ) (referred to WO2017/175147A1). STING variants (WT & HAQ) vector were constructed based on STING-232H vector (Origene, RC208418). GFP vector (VT2069) was bought from Youbio. The detailed protocol as follows: HEK-Blue™ ISG KO-STING cells were harvest and seeding into 96 well plate, the final cell number was 0.8×10^5 cells/well. Transfections were prepared using Lipofectamine 2000 (Invitrogen, Cat #11668-027) following the manufacturer's instructions (Lipo2000/DNA=1/10), 20 ul of transfection suspension containing 1 ng STING vector was added to cell culture plate and incubated at 37° C., 5% CO2 for 24 hours. After 24 hours' incubation, compounds were added at proper concentration, and the final DMSO concentration was 0.5%. After 24 h incubation, the supernatant was collected to detect SEAP signal using Great EscAPe SEAP chemiluminescence KIT (Clontech, cat #631738) and cells were collected to detect cell viability using CellTiter-Glo Luminescent Cell Viability Assay (Promega, cat #G7573) following the manufacturer's instructions. The data were described by the ratio of the stimulating signal of compounds to 0.5% DMSO.

STING HAQ variant = target: T2, STING HAQ variant (Homo sapiens, UniProt Q86WV6, G230A/R293Q/R71H); experiment: SEAP reporter assay in HEK-Blue ISG KO-STING cells transfected with STING HAQ variant (Method 1); conditions: 24 h, SEAP signal vs 0.5% DMSO
T2 construct: host or cells: HEK-Blue ISG KO-STING cells (Invivogen, hkb-kostg)
T2 sequence (Q86WV6 whole entry R71H/G230A/R293Q): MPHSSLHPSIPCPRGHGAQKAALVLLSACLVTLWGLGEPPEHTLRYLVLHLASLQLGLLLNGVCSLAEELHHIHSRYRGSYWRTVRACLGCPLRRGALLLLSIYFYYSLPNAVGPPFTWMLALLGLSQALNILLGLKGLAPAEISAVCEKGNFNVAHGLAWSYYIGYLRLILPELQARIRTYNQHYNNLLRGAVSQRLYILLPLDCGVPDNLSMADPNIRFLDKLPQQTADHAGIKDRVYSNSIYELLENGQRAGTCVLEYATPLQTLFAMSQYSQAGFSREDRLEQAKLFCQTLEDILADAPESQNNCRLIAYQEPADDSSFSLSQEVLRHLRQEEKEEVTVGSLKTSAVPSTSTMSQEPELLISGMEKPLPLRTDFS
Excerpt: as §1

[1] = THP1 cells; 24 h incubation; IFN-β in supernatant; top dose set according to solubility; read-out: hIFNβ ELISA (EC50)
[2] = 1 ng STING vector, compound 2.5 uM
[3] = 1 ng STING vector, compound 5 uM
[4] = THP1 cells; 24 h incubation; IFN-β in supernatant; top dose set according to solubility

Sequence of STING (Q86WV6 whole entry): as the sequence (Q86WV6 whole entry R71H/G230A/R293Q) above, with H71R, A230G, Q293R counted along it

CCn1nc(C)cc1C(=O)Nc1nc2cc(C(N)=O)cc(OCCCN3CCOCC3)c2n1CCC[C@H]1COc2cc(C(N)=O)cc3nc(NC(=O)c4cc(C)nn4CC)n1c23 [Example 24, (S)-3-(3-(5-carbamoyl-2-(1-ethyl-3-methyl-1H-pyrazole-5-carboxamido)-7-(3-morpholinopropoxy)-1H-benzo[d]imidazol-1-yl)propyl)-2-(1-ethyl-3-methyl-1H-pyrazole-5-carboxamido)-3,4-dihydro-5-oxa-1,2a-diazaacenaphthylene-7-carboxamide]
EC50 (STING; [1]): 1.1 µM
Fold change related to DMSO control WT (STING WT variant; [2]): 2.70
Fold change related to DMSO control HAQ (STING HAQ variant; [3]): 56.42

CCn1nc(C)cc1C(=O)Nc1nc2cc(C(N)=O)cc(OCCCO)c2n1CCC[C@H]1COc2cc(C(N)=O)cc3nc(NC(=O)c4cc(C)nn4CC)n1c23 [Example 6, (S)-3-(3-(5-carbamoyl-2-(1-ethyl-3-methyl-1H-pyrazole-5-carboxamido)-7-(3-hydroxypropoxy)-1H-benzo[d]imidazol-1-yl)propyl)-2-(1-ethyl-3-methyl-1H-pyrazole-5-carboxamido)-3,4-dihydro-5-oxa-1,2a-diazaacenaphthylene-7-carboxamide]
EC50 (STING; [1]): 4.8 µM
Fold change related to DMSO control WT (STING WT variant; compound 57.9 uM): 1.71
Fold change related to DMSO control HAQ (STING HAQ variant; compound 57.9 uM): 32.88

CCn1nc(C)cc1C(=O)Nc1nc2cc(C(N)=O)cc(OCCCNC(C)=O)c2n1CCC[C@H]1COc2cc(C(N)=O)cc3nc(NC(=O)c4cc(C)nn4CC)n1c23 [Example 22, (S)-3-(3-(7-(3-acetamidopropoxy)-5-carbamoyl-2-(1-ethyl-3-methyl-1H-pyrazole-5-carboxamido)-1H-benzo[d]imidazol-1-yl)propyl)-2-(1-ethyl-3-methyl-1H-pyrazole-5-carboxamido)-k, 3,4-dihydro-5-oxa-1,2a-diazaacenaphthylene-7-carboxamide]
EC50 (STING; [1]): 3.9 µM
Fold change related to DMSO control WT (STING WT variant; [2]): 2.40
Fold change related to DMSO control HAQ (STING HAQ variant; [3]): 47.36

CCn1nc(C)cc1C(=O)Nc1nc2cc(C(N)=O)cc(OCCCOC)c2n1CCCC[C@H]1COc2cc(C(N)=O)cc3nc(NC(=O)c4cc(C)nn4CC)n1c23 [Example 8, (S)-3-(4-(5-carbamoyl-2-(1-ethyl-3-methyl-1H-pyrazole-5-carboxamido)-7-(3-methoxypropoxy)-1H-benzo[d]imidazol-1-yl)butyl)-2-(1-ethyl-3-methyl-1H-pyrazole-5-carboxamido)-3,4-dihydro-5-oxa-1,2a-diazaacenaphthylene-7-carboxamide]
hIFNβ ELISA (EC50, μM) (STING; [4]): inactive
Fold change related to DMSO control WT (STING WT variant; compound 4.7 uM): 2.08
Fold change related to DMSO control HAQ (STING HAQ variant; compound 4.7 uM): 8.09

CCn1nc(C)cc1C(=O)Nc1nc2cc(C(N)=O)cc(OCCCS(C)(=O)=O)c2n1CCC[C@H]1COc2cc(C(N)=O)cc3nc(NC(=O)c4cc(C)nn4CC)n1c23 [Example 37, (S)-3-(3-(5-carbamoyl-2-(1-ethyl-3-methyl-1H-pyrazole-5-carboxamido)-7-(3-(methylsulfonyl)propoxy)-1H-benzo[d]imidazol-1-yl)propyl)-2-(1-ethyl-3-methyl-1H-pyrazole-5-carboxamido)-3,4-dihydro-5-oxa-1,2a-diazaacenaphthylene-7-carboxamide]
hIFNβ ELISA (EC50, μM) (STING; [4]): inactive
Fold change related to DMSO control WT (STING WT variant; [2]): 2.14
Fold change related to DMSO control HAQ (STING HAQ variant; [3]): 23.71

CCn1nc(C)cc1C(=O)Nc1nc2cc(C(N)=O)cc(OC)c2n1CCC[C@@H]1COc2cc(C(N)=O)cc3nc(NC(=O)c4cc(C)nn4CC)n1c23 [Example 4, (R)-3-(3-(5-Carbamoyl-2-(1-ethyl-3-methyl-1H-pyrazole-5-carboxamido)-7-methoxy-1H-benzo[d]imidazol-1-yl)propyl)-2-(1-ethyl-3-methyl-1H-pyrazole-5-carboxamido)-3,4-dihydro-5-oxa-1,2a-diazaacenaphthylene-7-carboxamide]
hIFNβ ELISA (EC50, μM) (STING; [4]): inactive
Fold change related to DMSO control WT (STING WT variant; compound 26.8 uM): 2.22
Fold change related to DMSO control HAQ (STING HAQ variant; compound 26.8 uM): 10.21

CCn1nc(C)cc1C(=O)Nc1nc2cc(C(N)=O)cc(OC)c2n1CCC[C@H]1COc2cc(C(N)=O)cc3nc(NC(=O)c4cc(C)nn4CC)n1c23 [Example 5, (S)-3-(3-(5-carbamoyl-2-(1-ethyl-3-methyl-1H-pyrazole-5-carboxamido)-7-methoxy-1H-benzo[d]imidazol-1-yl)propyl)-2-(1-ethyl-3-methyl-1H-pyrazole-5-carboxamido)-3,4-dihydro-5-oxa-1,2a-diazaacenaphthylene-7-carboxamide]
EC50 (STING; [1]): 3.7 µM
Fold change related to DMSO control WT (STING WT variant; compound 22.1 uM): 1.41
Fold change related to DMSO control HAQ (STING HAQ variant; compound 22.1 uM): 22.85

CCn1nc(C)cc1C(=O)Nc1nc2cc(C(N)=O)cc(OCCCN)c2n1CCC[C@H]1COc2cc(C(N)=O)cc3nc(NC(=O)c4cc(C)nn4CC)n1c23.Cl [Example 14, (S)-3-(3-(7-(3-aminopropoxy)-5-carbamoyl-2-(1-ethyl-3-methyl-1H-pyrazole-5-carboxamido)-1H-benzo[d]imidazol-1-yl)propyl)-2-(1-ethyl-3-methyl-1H-pyrazole-5-carboxamido)-3,4-dihydro-5-oxa-1,2a-diazaacenaphthylene-7-carboxamide]
EC50 (STING; read-out: hIFNβ ELISA (EC50); THP1 cells; 24 h incubation; IFN-β in supernatant; top dose set according to solubility): > 13.7 µM
Fold change related to DMSO control WT (STING WT variant; [2]): 2.17
Fold change related to DMSO control HAQ (STING HAQ variant; [3]): 16.68

CCn1nc(C)cc1C(=O)Nc1nc2cc(C(N)=O)cc(OCCOCCOC)c2n1CCC[C@H]1COc2cc(C(N)=O)cc3nc(NC(=O)c4cc(C)nn4CC)n1c23 [Example 25, (S)-3-(3-(5-carbamoyl-2-(1-ethyl-3-methyl-1H-pyrazole-5-carboxamido)-7-(2-(2-methoxyethoxy)ethoxy)-1H-benzo[d]imidazol-1-yl)propyl)-2-(1-ethyl-3-methyl-1H-pyrazole-5-carboxamido)-3,4-dihydro-5-oxa-1,2a-diazaacenaphthylene-7-carboxamide]
EC50 (STING; [1]): 0.7 µM
Fold change related to DMSO control WT (STING WT variant; [2]): 1.95
Fold change related to DMSO control HAQ (STING HAQ variant; [3]): 46.51

CCn1nc(C)cc1C(=O)Nc1nc2cc(C(N)=O)cc(OCCCNC(=O)CN(C)C)c2n1CCC[C@H]1COc2cc(C#N)cc3nc(NC(=O)c4cc(C)nn4CC)n1c23 [Example 15, (S)-1-(3-(7-cyano-2-(1-ethyl-3-methyl-1H-pyrazole-5-carboxamido)-3,4-dihydro-5-oxa-1,2a-diazaacenaphthylen-3-yl)propyl)-7-(3-(2-(dimethylamino)acetamido)propoxy)-2-(1-ethyl-3-methyl-1H-pyrazole-5-carboxamido)-1H-benzo[d]imidazole-5-carboxamide]
hIFNβ ELISA (EC50, μM) (STING; [4]): inactive
Fold change related to DMSO control WT (STING WT variant; [2]): 2.11
Fold change related to DMSO control HAQ (STING HAQ variant; [3]): 11.61

CCn1nc(C)cc1C(=O)Nc1nc2cc(C(N)=O)cc(OCC[C@@H](O)CO)c2n1CCC[C@H]1COc2cc(C(N)=O)cc3nc(NC(=O)c4cc(C)nn4CC)n1c23 [Example 38, (S)-3-(3-(5-carbamoyl-7-((R)-3,4-dihydroxybutoxy)-2-(1-ethyl-3-methyl-1H-pyrazole-5-carboxamido)-1H-benzo[d]imidazol-1-yl)propyl)-2-(1-ethyl-3-methyl-1H-pyrazole-5-carboxamido)-3,4-dihydro-5-oxa-1,2a-diazaacenaphthylene-7-carboxamide]
hIFNβ ELISA (EC50, μM) (STING; [4]): inactive
Fold change related to DMSO control WT (STING WT variant; [2]): 2.15
Fold change related to DMSO control HAQ (STING HAQ variant; [3]): 18.05
